In assay [1] the test system is BWF1 mice. Put plainly: FACS of CD8+ Foxp3+ T cells in mesenteric nodes and spleen after peptide gavage. It counts as in vivo. As to the method:
Lastly, we synthesized the D-form of pCons, for the purpose of administering it orally since D-forms are resistant to acid degradation. […] Specifically, studies have been completed in which BWF1 mice were fed 5 days a week out of every 30 days saline, low dose pCons (25 ug), middle dose (100 ug) or high dose (250 ug) by gavage. Both D and L-forms are being studied. Most of those mice were sacrificed to study characteristics of cells in mesenteric lymph nodes and spleens. Observations from these studies are disclosed in the following paragraphs.
First, we observed that CD8+ T cells that express Foxp3 (known to be inhibitory T cells for SLE) were induced in mesenteric nodes and spleen cells by the highest dose (250 ug) of D-peptide and by the middle dose (100 ug) and high dose of L-peptide. Thus the administration of low/middle dose D-peptide and of low dose L-peptide was not effective. Data were obtained by FACS analysis of total node populations, with percent of CD8+ Foxp3+ cells in untreated mice <1%, compared to 3-6% of total CD8+ cells in the effective doses of peptide. These changes are high enough to be clinically significant according to our earlier data with L-peptide given i.v.

Another assay has as its system mice. Put plainly: induction of Treg and Ti in mice by administered peptide. Conditions: administered subcutaneously (so in the source). It counts as in vivo.
Assay [2] concerns BWF1 mice. Put plainly: single adoptive transfer of CD8+ Ti from tolerized mice to irradiated syngeneic recipients. It counts as in vivo. The conditions noted are these: single transfer of 10×10^6 CD8+ T cells from spleens of tolerized mice. The text has this: FIG. 4 provides graphs of data showing the CD8+ Ti induced by i.v. administration of L-pCons are potent in suppressing nephritis (left panel) and prolonging survival in vivo (right panel) (see, e.g. Hahn et al., J Immunol 2005; 175:7728-37).

Assay [3] deals with peripheral blood mononuclear cells from patients with SLE. In words: expansion of CD4+ CD25hi T cells in SLE patient cells cultured with peptide for 5 days. The conditions noted are these: for expansion of CD4+ CD25hi (Foxp3+) regulatory T cell populations: SLE patient cells in culture, 5 days. In kind it is cell-based, human. As to the method:
In these experiments, pCons and other stimulatory (peptides B and D) peptides and non-stimulatory peptides (peptide A) that are wild peptides from human monoclonal antibodies to DNA were incubated with peripheral blood mononuclear cells from patients with SLE.
In FIGS. 6 and 7, we show data on the ability of L-pCons to mature the CD4+ CD25hiFoxp3+ natural regulatory cells in patients with SLE. In these experiments, pCons and other stimulatory (peptides B and D) peptides and non-stimulatory peptides (peptide A) that are wild peptides from human monoclonal antibodies to DNA were incubated with peripheral blood mononuclear cells from patients with SLE. […] Such cells are thought to be regulatory T cells.
(§1) Next, we studied the ability of L-pCons to induce Treg in T cells from the peripheral blood of patients with SLE (36 patients, 32 healthy controls). Stimulatory control peptides B and D are wild peptides from human mAb anti-DNA; peptide A is a nonstimulatory negative control (see, e.g. Kaki et al., Lupus 2004; 13:490-500). […] These expanded cells were regulatory (FIG. 8): they suppressed proliferation and IFNg synthesis by autologous CD4+ CD25− cells in culture. Numbers of CD4+ Foxp3+ T cells were also expanded and silencing of Foxp3 by transfection with specific siRNA for Foxp3 abrogated the suppressive capacity of the induced T reg by ½ (3rd panel, FIG. 8). […] Patients who were anti-DNA negative were unlikely to respond to pCons with expansion of Treg (see, e.g. La Cava et al, Lupus. 2008; 17(5):421-5).

The subject of a further assay is CD4+ CD25− T cells. Put plainly: suppression of autologous CD4+ CD25− T cells by pCons-induced Treg. In kind it is cell-based, human. Conditions: 1:1 ratios.
Excerpt: T cells were also expanded and silencing of Foxp3 by transfection with specific siRNA for Foxp3 abrogated the suppressive capacity of the induced T reg by ½ (3rd panel, FIG. 8).
as §1

Assay [4] has as its system BWF1 mice. Conditions: cited from earlier work.
Setting [5] is: high dose i.v. tolerogen once a month, BWF1 females.

Like-named read-outs stand apart in the source and are kept apart here. Where no end group is shown, it is not given here. [ ]: non-standard residue; d: D form.

Consider “FIEWNKLRFRQGLEW ([dF][dI][dE][dW][dN][dK][dL][dR][dF][dR][dQ]G[dL][dE][dW]) [D-pCons]”, for which the “induction of CD8+ T cells that express Foxp3” value with BWF1 mice [1] (low dose 25 ug by gavage) and with BWF1 mice [1] (middle dose 100 ug by gavage) was “not effective” each time. In addition, the “induction of Treg and Ti” value with mice is “induces Treg and Ti”.
For FIEWNKLRFRQGLEW [L-pCons], in the assay with BWF1 mice [2], the “effect of peptide-induced CD8+ Ti on nephritis and survival” value is “potent in suppressing nephritis and prolonging survival in vivo”. Also, the “patients showing expansion of CD4+ CD25hi cells to more than the usual 2-3% of peripheral blood MNC” value in assay [3] (5 days in culture) was “Thirteen of 23”. Further, the entries for the “expansion of CD4+ CD25hi (Foxp3+) regulatory T cell populations” value in assay [3] and in assay [3] (listed as pCons) were “expand significantly” and “expanded CD4+ CD25hi populations in some patients”, respectively. In addition, in the assay with CD4+ CD25− T cells, the “effect of peptide-induced Treg on CD4+ CD25− T cells” value is “suppress proliferation and IFNg production”. In addition, in the assay with BWF1 mice [4] (setting [5]), the “appearance of anti-DNA, anti-phospholipid, and proteinuria” value was “significant delay”. Besides, the prolongation of survival in the assay with BWF1 mice [4] (setting [5]) was 24 week. Also, the prolongs survival with BWF1 mice [4] (started after nephritis and anti-DNA antibodies have appeared) was 3-4 months; with BWF1 mice [4] (started prior to disease onset), 4-5 months.
